Results as given in US5631246A, “Use of PAF” (The Canadian Red Cross Society, priority 1993, dated 1997).
Read-outs that look alike come from different tables or passages of the source. Values belong to the molecule of their own block, whether it stands above or below them.

How the values were obtained:
PAF receptor = PAF receptor (Homo sapiens, UniProt P25105); test: Effect of PAF receptor antagonist on release of vWf from ECs; conditions: for % Inhibition of vWf release: 10 μM BTP-dioxolane
Procedure: (§2) Media with or without thrombin (@5 units/mL) served as positive and negative controls respectively. ECs were incubated for 1, 10, 20 or 30 minutes and 1, 2, 4, 6 and 24 hours in the PAF and thrombin time course studies. The EC conditioned media were recovered, centrifuged to remove any cell debris, and then frozen at -80° C. for a maximum period of 4 weeks prior to analyses.
(§3) Endothelial cells (ECs) were harvested from human umbilical cord vein as described by Jaffe et al. ((1973) Culture of Human Endothelial Cells Derived from Umbilical Veins: Identification by Morphologic and Immunologic Criteria, J. Clin. Invest. 52:2745-2756) and modified by Hashemi et al. (1990, supra). Endothelial cells were subcultured in 0.2% (w/v) gelatin-coated, 12-well Linbro™ polystyrene, tissue culture plates (Flow Laboratories, Mississauga, Ontario), then plated at a density of 1-2×10^4 /well and grown to confluence.
(§4) The standard consisted of a pool of plasma from 20 normal individuals previously determined to contain 1 unit of vWf per mL by the procedure of Zimmerman et al. (1977, J. Clin. Invest. 59:984-989). […] For some experiments, the maximum vWf that could be released was determined. Following incubation, the EC conditioned media were recovered and fresh media containing 0.05% (v/v) Tween 20 and 10 μM each of the protease inhibitors D-phenylalanyl-phenylalanyl-arginyl-chloromethyl ketone, D-phenylalanyl-propyl-arginyl-chloromethyl ketone and 1,5-Dansyl-glutamyl-glycyl-arginyl-chloromethyl ketone were added to the EC monolayers of each corresponding well. The cells were freeze-thawed three times and, to assure complete breakdown of the cell membranes as well as the Weibel-Palade bodies, disrupted in a glass homogenizer using a motor-driven teflon pestle. After centrifugation, total vWf concentration was determined in the supernatants.
The following procedure was followed.

ECs = test: Cytotoxicity to ECs by dye exclusion test; format: cell-based, human; conditions: BTP-dioxolane preincubation
Procedure: as §2

endothelial cells (ECs) [1] = test: PGI2 release from ECs exposed to supernatants of DDAVP-treated monocytes; format: cell-based, human
Procedure: (§1) Prostaglandins E2, F2a, and I2 (assayed as 6 keto-PGF1a) were assayed using the iodinated or tritiated (for PGF2a) kits purchased from Amersham Canada (Oakville, Ontario). ATP and ADP were assayed using the adenosine-5'-triphosphate bioluminescent kit from Sigma (St. Louis, Mo.). Prior to assay, ADP present in standards or in samples was converted to ATP (Holmsen et al. (1966) Anal. Biochem. 17:456-473; (1972) Anal. Biochem. 46:489-501). Luminescence was measured using a Lumi-Aggregometer (Chrono-Log Corp., Havertown, Pa.).
If the data are expressed as a percentage increase in PGI2 released from ECs exposed to supernatants from DDAVP-treated compared to untreated monocytes, in order to control for variability in the basal response between the various monocyte and EC preparations, a 60% increase in PGI2 release was observed (P<0.05).

monocytes [2] = test: Secretion of prostaglandins and adenine nucleotides from monocytes; format: cell-based, human; conditions: 100 ng DDAVP/mL, 30 min
Procedure: as §1

endothelial cells = conditions: direct DDAVP treatment; cited from earlier work
monocytes [3] = test: PAF secretion from monocytes (RIA); format: cell-based, human
Source text: In addition, PAF was extracted from the monocyte supernatants and assayed using the following highly specific and sensitive radioimmunoassay. As the most predominant bioactive forms of PAF secreted by monocytes are the C16 and C18 alkyl moieties (Sugiura and Waku, (1987) Platelet-Activating Factor and Related Lipid Mediators, F. Snyder Ed. Plenum Press, N.Y. 55-85; Prescott et al. (1990) Proc. Natl. Acad. Sci. U.S.A. 81:3534-3538), PAF was quantitated using the highly specific and sensitive ^125 I-RIA kit manufactured by NEN Research Products (Du Pont Canada, Mississauga, Ontario, Canada) following extraction of the monocyte supernatants with 5 mL each of methanol and chloroform and 3.5 mL of water per mL of sample. The recovered chloroform layers, dried under nitrogen, were reconstituted in the PAF assay kit buffer prior to analysis. The development, specificity, and sensitivity of this assay for the C16 and C18 forms of PAF have been previously documented (Smal et al. (1989) Molec. Immunol. 26:711-719; (1990) J. Molec. Recognition 3:169-173; (1990) J. Immunol. Methods 128:183-188; (1990) J. Reprod. Fert. 90:419-425). […] Iodinated samples were counted on a Beckman Gamma 5500 counter (Beckman Instruments, Fullerton, Calif.). The 3H-PAF (10 Ci/mmole) and ^125 I-PAF (2200 Ci/mmole) consisted of a 1:1 admixture of the C16 and Cla forms of PAF.
Alternatively, PAF that has previously associated with monocytes following initial secretion may be released again into the supernatant.

monocytes [4] = test: Cytokine secretion from monocytes (ELISA); format: cell-based, human; conditions: 100 ng DDAVP/mL, 30 min
Source text: Cytokines, IL-1β, IL-6, IL-8, TNF-α, GM-CSF, and G-CSF were quantitated by specific ELISA using human recombinant cytokines as standards. The Quantikine™ kits for measuring IL-1β, IL-6, IL-8, TNF-α and G-CSF were purchased from R & D Systems (Minneapolis, Minn.). The GM-CSF assay kit came from Genzyme Corp. (Boston, Mass.). The minimum detectable levels of cytokines were: 4.5 pg/mL (IL-1β), 3.5 pg/mL (IL-6), 4.7 pg/mL (IL-8), 4.8 pg/mL (TNF-α), 11.2 pg/mL (G-CSF) and 10.0 pg/mL (GM-CSF).

endothelial cells (ECs) [5] = test: vWf release from ECs exposed to supernatants of DDAVP-treated monocytes (vWf releasing factor)
Procedure: Media with or without thrombin (@5 units/mL) served as positive and negative controls respectively. […] The EC conditioned media were recovered, centrifuged to remove any cell debris, and then frozen at -80° C. for a maximum period of 4 weeks prior to analyses. […] Where appropriate ECs were preincubated with BTP-dioxolane which was not cytotoxic to the cells as determined by the dye exclusion test.
as §3
Following centrifugation at 300×g for 15 minutes at 20° C., the top layer of plasma was recovered and respun at 2,000×g for 15 minutes to provide cell-free autologous plasma. The remaining plasma and buffy coat were resuspended, adjusted to 35 mL per 60 mL volume of whole blood with PBS (Dulbecco's phosphate buffered saline-Gibco BRL), and layered over 12 ml of Histopaque 1077 (Sigma). The MNC recovered by centrifugation at 300×g for 30 minutes were washed 3×in PBS+5% (v/v) fetal calf serum (FCS; Flow Laboratories, McLean, Va.). The cell concentration was adjusted to 5×10^6 /mL in RPMI+5% FCS and then added to the pretreated tissue culture plates described by Hashemi et al. (1990, supra).
The method of Freundlich and Avdolomic (1983, Use of Gelatin/Plasma Coated Flasks for Isolating Human Peripheral Blood Monocytes, J. Immunol. Methods, 62:31-37) as modified by Hashemi et al. (1990, supra) was used to purify monocytes from mononuclear cells. The mononuclear cell suspension (5×10^6 cells/mL) was incubated for 18-20 hours at 37° C. in a CO2 incubator. The monocytes were harvested with 10 mM EDTA (Gibco Laboratories) in RPMI+5% FCS and following centrifugation were washed 3×in media and resuspended in serum-free medium (DMEM/F12, Gibco) containing 1% Nutridoma-HU (Boehringer-Mannheim Canada, Laval, Quebec). The recovered cells met morphological criteria for monocytes and were 90% positive for monocyte CD14 surface marker determined by direct immunofluorescence using fluorescent conjugated anti-Leu-M3 (CD14) monoclonal antiserum (Becton-Dickinson, Mountain View, Calif.). Cell viability was greater than 90% as determined by trypan blue dye exclusion (Gibco). […] Cell suspensions were incubated in sterile Petri dishes, previously coated with 2% gelatin for 1 hour at 37° C., for 30-minutes or for 1, 2, 4, 6 and 24 hours. Monocyte-conditioned media were centrifuged at 2,000×g for 15 minutes and frozen at -80° C. prior to incubation with the EC monolayer cultures. For some experiments, conditioned media were lipid extracted as described prior to the PAF radioimmunoassay below. The dried extracts were reconstituted with fresh DMEM/F12+1% Nutridoma-HU media, briefly sonicated and added to EC cultures.

[6] = system: von Willebrand factor and factor VIII; conditions: cited from earlier work
endothelial cells (ECs) [7] = test: vWf release from ECs exposed directly to PAF or thrombin
Procedure: Synthetic PAF (1-O-alkyl-2-acetyl-sn-glyceryl-3-phosphorylcholine; Sigma #P-9525) prepared from bovine heart lecithin (Demopoulos et al. (1979) J. Biol. Chem. 254: 9355-358) was 99% pure by TLC analysis, HPLC analysis indicated this product consisted of 70% C16 and 13% C18 forms of PAF (Mita et al., (1989) Anal. Biochem. 180:131-135). After removal of chloroform, PAF was resuspended in DMEM/F12 culture medium containing 1% Nutridoma-HU (final protein concentration of 40 μM stock solution). After sonication for 3×1 minute periods, the PAF solution was diluted and used immediately.
Media with or without thrombin (@5 units/mL) served as positive and negative controls respectively. ECs were incubated for 1, 10, 20 or 30 minutes and 1, 2, 4, 6 and 24 hours in the PAF and thrombin time course studies. The EC conditioned media were recovered, centrifuged to remove any cell debris, and then frozen at -80° C. for a maximum period of 4 weeks prior to analyses. […] Where appropriate ECs were preincubated with BTP-dioxolane which was not cytotoxic to the cells as determined by the dye exclusion test.
as §3, §4
In order to examine the responsiveness of ECs to direct PAF exposure, we incubated the monolayers of ECs with 0-300 pico molar (pM) PAF for a period of 4 hours at 37° C. and determined the amount of vWf released into the EC media. […] To determine the time course of PAF effects on vWf release, 300 pM PAF was incubated with monolayers of ECs for 1, 10, 20 and 30 minutes as well as for 1, 2, 4, 6 and 24 hours. […] As a control, the vWf release from thrombin stimulated ECs was also determined (FIG. 5).

PAF receptor, sequence (P25105 whole entry): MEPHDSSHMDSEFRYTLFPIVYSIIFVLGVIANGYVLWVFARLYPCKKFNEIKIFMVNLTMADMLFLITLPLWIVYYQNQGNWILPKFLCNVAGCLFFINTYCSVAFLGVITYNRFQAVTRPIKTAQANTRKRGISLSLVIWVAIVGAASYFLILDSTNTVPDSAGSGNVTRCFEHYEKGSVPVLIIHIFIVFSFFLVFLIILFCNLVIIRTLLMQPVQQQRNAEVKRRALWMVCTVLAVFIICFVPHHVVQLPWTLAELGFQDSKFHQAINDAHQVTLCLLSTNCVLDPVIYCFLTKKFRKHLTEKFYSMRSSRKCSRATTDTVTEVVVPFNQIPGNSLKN

% Inhibition of vWf release (PAF receptor; supernatants from monocytes treated with 100 ng DDAVP/mL, P <0.001): 82% | % Inhibition of vWf release (PAF receptor; supernatants from untreated monocytes (DDAVP 0 ng/mL), P <0.005): 68% | % Inhibition of vWf release (PAF receptor; thrombin 5 U/mL, P <0.025): 15% | inhibition at 10 µM (PAF receptor; read-out: % Inhibition of vWf release, 10 μM BTP-dioxolane, PAF 100 pM, P <0.001): 74.7 ± 4% | inhibition at 10 µM (PAF receptor; read-out: % Inhibition of vWf release, 10 μM BTP-dioxolane, PAF 300 pM, P <0.005): 83.2 ± 11% | inhibition at 10 µM (PAF receptor; read-out: % Inhibition of vWf release, 10 μM BTP-dioxolane, supernatants from monocytes treated with 100 ng DDAVP/mL, P <0.001): 81.8 ± 7% | inhibition at 10 µM (PAF receptor; read-out: % Inhibition of vWf release, 10 μM BTP-dioxolane, supernatants from untreated monocytes (DDAVP 0 ng/mL), P <0.005): 68.4 ± 10.4% | inhibition at 10 µM (PAF receptor; read-out: % Inhibition of vWf release, 10 μM BTP-dioxolane, thrombin 5 U/mL, P <0.025): 14.7 ± 4% | inhibition at 10 µM (PAF receptor; read-out: inhibition of the effects of PAF on vWf release from ECs, BTP-dioxolane 10 μM, 100 pM or 300 pM PAF): 75 to 83%
Molecule: COc1cc([C@H]2OC[C@H](c3cc(OC)c(OC)c(OC)c3)O2)cc(OC)c1OC (racemic) [BTP-dioxolane]
inhibition of the PAF-dependent release of vWf (PAF receptor; preincubated 10 minutes with ECs, final concentration 10 μM): effective inhibition of the PAF-dependent release of vWf | cytotoxicity to ECs (ECs): not cytotoxic

Molecule: NC(=O)CC[C@@H]1NC(=O)[C@H](Cc2ccccc2)NC(=O)[C@H](Cc2ccc(O)cc2)NC(=O)CCSSC[C@@H](C(=O)N2CCC[C@H]2C(=O)N[C@H](CCCN=C(N)N)C(=O)NCC(N)=O)NC(=O)[C@H](CC(N)=O)NC1=O [DDAVP, 1-deamino-8-D-arginine vasopressin]
increase in PGI2 release from ECs (endothelial cells (ECs) [1]; DDAVP-treated compared to untreated monocyte supernatants, P<0.05): 60% | PGI2 release from ECs (endothelial cells (ECs) [1]; supernatants from DDAVP-treated monocytes, cf. 332±107 untreated, corrected for PGI2 in supernatants): 538 ± 136 pg/mL | effect on secretion of PGE2, PGF2a, PGI2, ATP or ADP from monocytes (monocytes [2]): no significant effect | ADP secreted (monocytes [2]; n=5, N.S. vs 0 ng/mL: 16.8 ± 5.5): 17.6 ± 12.2 nM | PGF2α secreted (monocytes [2]; n=5, N.S. vs 0 ng/mL: 333 ± 116): 406 ± 124 pg/mL | ATP secreted (monocytes [2]; n=6, N.S. vs 0 ng/mL: 10.3 ± 6.6): 7.4 ± 4.4 nM | PGI2 secreted (monocytes [2]; n=9, N.S. vs 0 ng/mL: 106 ± 17): 107 ± 18 pg/mL | PGE2 secreted (monocytes [2]; n=10, N.S. vs 0 ng/mL: 3.61 ± 0.80): 4.37 ± 1.70 pg/mL | secretion of vWf by endothelial cells in vitro (endothelial cells): no increased secretion of vWf | time course of PAF in monocyte supernatants (monocytes [3]; 100 ng DDAVP/mL vs unstimulated, at any point in time, 30 min to 24 h, FIG. 7A): higher levels of PAF present in post-DDAVP monocyte supernatants | time course of PAF secretion from monocytes (monocytes [3]; 100 ng DDAVP/mL, 2-4 hours, FIG. 7A): declined sharply | time course of PAF secretion from monocytes (monocytes [3]; 100 ng DDAVP/mL, 6 hours, FIG. 7A): increased again | time course of PAF secretion from monocytes (monocytes [3]; 100 ng DDAVP/mL, 24 hours, FIG. 7A): still elevated | DDAVP concentration of maximum PAF secretion from monocytes (monocytes [3]; 30 minutes exposure, (169 nM)): 200 ng DDAVP/mL | ED50 for PAF secretion from monocytes (monocytes [3]; 30 minutes, estimated): 85 ng DDAVP/mL | PAF release from monocytes (monocytes [3]; FIG. 1B, 100 ng DDAVP/mL, 30 min, cf. 94 pM untreated, P<0.001): 284 pM | maximum PAF secretion from monocytes (monocytes [3]; at 200 ng DDAVP/mL (169 nM), 30 minutes): 480 fmol/mL | TNF-α secreted (monocytes [4]; n=6, N.S. vs 0 ng/mL: 4 ± 3): 0 ± 0 pg/mL | IL-6 secreted (monocytes [4]; n=6, N.S. vs 0 ng/mL: 23 ± 9): 26 ± 2 pg/mL | IL-1β secreted (monocytes [4]; n=6, N.S. vs 0 ng/mL: 319 ± 118): 271 ± 93 pg/mL | IL-8 secreted (monocytes [4]; n=12, N.S. vs 0 ng/mL: 690 ± 257): 639 ± 214 pg/mL | vWf release from ECs (endothelial cells (ECs) [5]; FIG. 1A, supernatants from monocytes with 100 ng DDAVP/mL 30 min, ECs 4 hours, n=26, cf. 104% untreated, P<0.001): 186% | enhancement of vWf release from ECs by lipid extracts of supernatants (endothelial cells (ECs) [5]; FIG. 3, DDAVP-treated monocytes (100 ng/mL), reconstituted lipid extract, n=7, cf. 71% untreated, P<0.05): 195% | vWf releasing factor (%) (endothelial cells (ECs) [5]; Table 1, IL-1β to G-CSF set, monocytes with 100 ng DDAVP/mL 30 min, ECs 4 hours, n=6, P <0.05 vs 0 ng/mL: 131 ± 15): 234 ± 35% | vWf releasing factor (%) (endothelial cells (ECs) [5]; Table 1, IL-8 set, 100 ng DDAVP/mL 30 min, ECs 4 hours, n=12, P <0.05 vs 0 ng/mL: 147 ± 29): 291 ± 58% | vWf releasing factor (%) (endothelial cells (ECs) [5]; Table 2, ATP/ADP set, 100 ng DDAVP/mL 30 min, ECs 4 hours, n=6, P <0.025 vs 0 ng/mL: 99 ± 17): 211 ± 33% | vWf releasing factor (%) (endothelial cells (ECs) [5]; Table 2, PGE2/PGF2α set, 100 ng DDAVP/mL 30 min, ECs 4 hours, n=10, P <0.01 vs 0 ng/mL: 122 ± 16): 307 ± 62% | vWf releasing factor (%) (endothelial cells (ECs) [5]; Table 2, PGI2 set, 100 ng DDAVP/mL 30 min, ECs 4 hours, n=9, P <0.05 vs 0 ng/mL: 153 ± 35): 347 ± 66% | time course of vWf release from ECs (endothelial cells (ECs) [5]; supernatants from DDAVP-stimulated vs unstimulated monocytes, except at 2 hours, FIG. 7B): consistently higher levels of vWf released | DDAVP concentration of maximum vWf release from ECs (endothelial cells (ECs) [5]; supernatants from DDAVP-treated monocytes, ECs 4 hours): 100 ng DDAVP/mL | ED50 for vWf release from ECs (endothelial cells (ECs) [5]; supernatants from DDAVP-treated monocytes, ECs 4 hours, estimated): 45 ng DDAVP/mL | Increase in vWf release (%), BTP-dioxolane absent (endothelial cells (ECs) [5]; supernatants from monocytes treated with 100 ng DDAVP/mL 30 min, ECs 4 hours, n=5, 0 ng/mL: 92.6 ± 14.7%): 197.2 ± 22.8% | vWf release from ECs, dose response (endothelial cells (ECs) [5]; supernatants from monocytes with 10-800 ng DDAVP/mL, ECs 4 hours at 37° C.): significant increases in vWf release were observed at all concentrations tested | plasma concentration of von Willebrand factor and factor VIII in vivo ([6]; Mannucci et al.): causes an increase in the plasma concentration | plasma concentration of von Willebrand factor and factor VIII ([6]; patients with mild or moderate haemophilia A or von Willebrand disease and normal individuals): increase the plasma concentration

Molecule: Thrombin
Increase in vWf release (%), BTP-dioxolane absent (endothelial cells (ECs) [7]; thrombin 5 U/mL, 4 hours, n=5): 123.5 ± 11.3% | vWf release from ECs (optimal effect) (endothelial cells (ECs) [7]; thrombin (5 units/mL), 10 minutes, P<0.001): 368% | vWf release from ECs (endothelial cells (ECs) [7]; thrombin (5 units/mL), 30 minutes): 261% | vWf release from ECs (endothelial cells (ECs) [7]; thrombin (5 units/mL), 1 hour): 137% | vWf release from ECs (endothelial cells (ECs) [7]; thrombin (5 units/mL), 24 hours): 88%
